Measured values as given in US20220041606A1, “POSITIVE ALLOSTERIC MODULATORS OF THE MUSCARINIC ACETYLCHOLINE RECEPTOR M1” (Vanderbilt University, priority 2020, published 2022).

Legend:
[1] = target: T1, human mAChR M1 (Homo sapiens, UniProt P11229); test: mAChR M1 cell-based functional assay (calcium mobilization), PAM activity: increase in the EC20 acetylcholine response; conditions: CHO-K1 cells expressing hM1; potentiation of EC20 acetylcholine response
T1 construct: host or cells: CHO-K1 cells (ATCC), stably transfected using Lipofectamine2000
T1 sequence (P11229 1-460): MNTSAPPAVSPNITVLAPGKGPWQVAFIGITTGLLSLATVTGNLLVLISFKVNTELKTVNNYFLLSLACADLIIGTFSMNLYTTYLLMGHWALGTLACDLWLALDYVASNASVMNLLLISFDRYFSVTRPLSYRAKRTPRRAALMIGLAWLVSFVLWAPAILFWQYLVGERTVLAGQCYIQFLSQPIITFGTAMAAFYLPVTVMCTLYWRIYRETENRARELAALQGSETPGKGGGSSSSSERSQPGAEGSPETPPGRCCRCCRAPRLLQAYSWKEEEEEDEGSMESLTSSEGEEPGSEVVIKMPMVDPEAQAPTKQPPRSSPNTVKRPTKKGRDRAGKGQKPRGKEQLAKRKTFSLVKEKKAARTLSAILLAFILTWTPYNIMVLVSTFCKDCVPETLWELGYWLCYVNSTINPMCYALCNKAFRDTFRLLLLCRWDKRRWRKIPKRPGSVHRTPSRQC
Summary of the method: (§1)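 CHO-K1 cells stably expressing hM1, loaded with Fluo-4 AM; calcium flux read on FDSS 6000. Compound (11-point, 1:3 CRC) added at 4 s, EC20 acetylcholine at 144 s, EC80 at 230 s; agonism from response to compound alone, PAM from increase in EC20 response; Emax relative to acetylcholine maximum, four-parameter fit.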

[2] = target: T1, human mAChR M1; test: mAChR M1 cell-based functional assay (calcium mobilization), agonist activity upon compound addition; conditions: CHO-K1 cells expressing hM1; for EC50: compound alone, before acetylcholine addition; for Emax: relative to the maximum for acetylcholine
Summary of the method: as §1

EC50 [1] [µM] | Emax [1] [%] | EC50 [2] [µM] | Emax [2] [%] | Structure (SMILES)
> 10 | 37 | > 10 | < 5 | Cn1cc(-c2ccc(Cn3cc(C(=O)N[C@H]4CCOC[C@@H]4O)c4sccc4c3=O)c(F)c2)cn1 [Compound D29, 5-(2-fluoro-4-(1-methyl-1H-pyrazol-4-yl)benzyl)-N-((3R,4S)-3-hydroxytetrahydro-2H-pyran-4-yl)-4-oxo-4,5-dihydrothieno[3,2-c]pyridine-7-carboxamide]
4.52 | 69 | > 10 | < 5 | Cn1cc2c(-c3cc(F)c(Cn4cc(C(=O)N[C@H]5CCOC[C@@H]5O)c5sccc5c4=O)c(F)c3)cccc2n1 [Compound D30, 5-(2,6-difluoro-4-(2-methyl-2H-indazol-4-yl)benzyl)-N-((3R,4S)-3-hydroxytetrahydro-2H-pyran-4-yl)-4-oxo-4,5-dihydrothieno[3,2-c]pyridine-7-carboxamide]
7.98 | 54 | > 10 | < 5 | Cn1cc2c(-c3cc(F)c(Cn4cc(C(=O)N[C@H]5CCCC[C@@H]5O)c5sccc5c4=O)c(F)c3)cccc2n1 [Compound D31, 5-(2,6-difluoro-4-(2-methyl-2H-indazol-4-yl)benzyl)-N-((1S,2S)-2-hydroxycyclohexyl)-4-oxo-4,5-dihydrothieno[3,2-c]pyridine-7-carboxamide]
7.73 | 40 | > 10 | < 5 | Cn1cc2c(-c3cc(F)c(Cn4cc(C(=O)N[C@H]5CCC[C@@H]5O)c5sccc5c4=O)c(F)c3)cccc2n1 [Compound D32, 5-(2,6-difluoro-4-(2-methyl-2H-indazol-4-yl)benzyl)-N-((1S,2S)-2-hydroxycyclopentyl)-4-oxo-4,5-dihydrothieno[3,2-c]pyridine-7-carboxamide]
5.29 | 42 | > 10 | < 5 | Cn1cc2c(-c3cc(F)c(Cn4cc(C(=O)N[C@H]5CCCCC[C@@H]5O)c5sccc5c4=O)c(F)c3)cccc2n1 [Compound D33, 5-(2,6-difluoro-4-(2-methyl-2H-indazol-4-yl)benzyl)-N-((1S,2S)-2-hydroxycycloheptyl)-4-oxo-4,5-dihydrothieno[3,2-c]pyridine-7-carboxamide]
